The assay deals with T1, GPR105 (Homo sapiens, UniProt Q15391).
T1 construct: gene P2RY14
T1 sequence (Q15391 1-338): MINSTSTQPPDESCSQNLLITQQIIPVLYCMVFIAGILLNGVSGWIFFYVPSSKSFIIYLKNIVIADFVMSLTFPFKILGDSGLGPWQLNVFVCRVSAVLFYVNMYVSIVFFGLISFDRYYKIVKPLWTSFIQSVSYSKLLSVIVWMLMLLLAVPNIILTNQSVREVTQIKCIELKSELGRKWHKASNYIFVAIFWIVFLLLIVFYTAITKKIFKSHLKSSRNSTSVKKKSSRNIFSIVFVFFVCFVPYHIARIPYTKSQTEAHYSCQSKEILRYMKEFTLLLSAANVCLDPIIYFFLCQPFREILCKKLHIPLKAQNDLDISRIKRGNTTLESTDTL
Description: cAMP-Glo luminescence assay in HEK293-hGPR105 cells (forskolin plus UDPG stimulated), antagonism. It is filed as cell-based.

Usually IC50 stands for the concentration that inhibits the measured activity by half. With `C/C=C/C#CC#C[C@@H](O)[C@@H](/C=C/CCCO)O[C@@H]1O[C@H](CO)[C@@H](O)[C@H](O)[C@H]1O` [LBT, lobetyolin], the IC50 stood at 5.1 µM.
